Data reported in ChEMBL document CHEMBL1148230, “Synthesis, characterization and evaluation of pro-drugs of VLA-4 antagonists” (Bioorg Med Chem Lett, 2004).
Values after ≈ are worked out from the molar mass of the structure shown.

Key:
[1] = Stability in rat plasma was determined; type: ADME
[2] = Permeability in Caco-2 assay at 10E-6; type: ADME; conditions: human, read-out: Activity
[3] = Solubility in SIBLM buffer system; type: physicochemical
[4] = Log Doctanol value by HPLC peak area analysis of aqueous and octanol phases at pH 6.5; type: physicochemical; conditions: octanol/aqueous phase, read-out: LogD6.5
[5] = Log Doctanol value by HPLC peak area analysis of aqueous and octanol phases at pH 4.5; type: physicochemical; conditions: octanol/aqueous phase
[6] = Solubility in SGF buffer system; type: physicochemical
[7] = Solubility in SIF buffer system; ND= not detectable; type: physicochemical; conditions: simulated gi fluid
[8] = Solubility in SIF buffer system; type: physicochemical
[9] = Solubility in SGF buffer system; ND=not detectable; type: physicochemical; conditions: simulated gi fluid
HUVEC = assay: Inhibitory activity against VLA-4 mediated adhesion to human vein endothelial cells; type: functional, cell-based
[10] = Log Doctanol value by HPLC peak area analysis of aqueous and octanol phases at pH 4.5-6.5; type: physicochemical
[11] = octanol/aqueous phase, read-out: logD

SMILES | half-life [1] | Papp [2] | solubility [3] | logD [4] | logD [5] | solubility [6] | solubility [7] | solubility [8] | solubility [9] | IC50 (HUVEC) | logD [10, 11] | logD ([10]; octanol/water)
CN(C)C(=O)Oc1ccc(C[C@H](NC(=O)[C@H]2N(S(=O)(=O)c3ccn(C)n3)CSC2(C)C)C(=O)OCOC(=O)C(C)(C)C)cc1 | 2.82 min | 2.49 ×10⁻⁶ cm/s | 119 µg/mL (≈ 182 µM) | 3.17 | 3.1 | 13 µg/mL (≈ 19.9 µM) | Not detectable | – | – | – | – | –
CCOC(=O)[C@H](Cc1ccc(OC(=O)N(C)C)cc1)NC(=O)[C@H]1N(S(=O)(=O)c2ccn(C)n2)CSC1(C)C | 8.08 min | 4.24 ×10⁻⁶ cm/s | 1180 µg/mL (≈ 2080 µM) | 2 | 2.27 | 629 µg/mL (≈ 1110 µM) | – | 341 µg/mL (≈ 601 µM) | – | – | – | –
CN(C)C(=O)Oc1ccc(C[C@H](NC(=O)[C@H]2N(S(=O)(=O)c3ccn(C)n3)CSC2(C)C)C(=O)OCCOc2ccccc2)cc1 | 1.6 min | 7.58 ×10⁻⁶ cm/s | 24 µg/mL (≈ 36.4 µM) | 3.34 | 3.21 | – | – | 0.506 µg/mL (≈ 0.767 µM) | Not detectable | – | – | –
CN(C)C(=O)Oc1ccc(C[C@H](NC(=O)[C@H]2N(S(=O)(=O)c3ccn(C)n3)CSC2(C)C)C(=O)O)cc1 | – | > 0.07 ×10⁻⁶ cm/s | 20000 µg/mL (≈ 37100 µM) | – | – | 3300 µg/mL (≈ 6120 µM) | – | > 20000 µg/mL | – | 6 nM | – | –
CC(C)OC(=O)[C@H](Cc1ccc(OC(=O)N(C)C)cc1)NC(=O)[C@H]1N(S(=O)(=O)c2ccn(C)n2)CSC1(C)C | 10.9 min | 6.83 ×10⁻⁶ cm/s | 158 µg/mL (≈ 272 µM) | 2.47 | 2.45 | 94.9 µg/mL (≈ 163 µM) | – | 45.5 µg/mL (≈ 78.2 µM) | – | – | – | –
CN(C)C(=O)Oc1ccc(C[C@H](NC(=O)[C@H]2N(S(=O)(=O)c3ccn(C)n3)CSC2(C)C)C(=O)OCC(C)(C)C)cc1 | 53.4 min | 4.52 ×10⁻⁶ cm/s | 6.97 µg/mL (≈ 11.4 µM) | – | – | 0.334 µg/mL (≈ 0.548 µM) | Not detectable | – | – | – | 3.43 | 3.42
COCCOCCOC(=O)[C@H](Cc1ccc(OC(=O)N(C)C)cc1)NC(=O)[C@H]1N(S(=O)(=O)c2ccn(C)n2)CSC1(C)C | 13.1 min | 2.03 ×10⁻⁶ cm/s | 4650 µg/mL (≈ 7250 µM) | 1.42 | – | 2830 µg/mL (≈ 4410 µM) | – | 2400 µg/mL (≈ 3740 µM) | – | – | 1.41 | –
